From patent US10544143B2, “4-azaindole compounds” (BRISTOL-MYERS SQUIBB COMPANY, priority 2017, dated 2020)
Like-named read-outs stand apart in the source and are kept apart here.

Tests used:
human TLR8 = human TLR8 (Homo sapiens (Human), UniProt Q9NR97); assay: TLR8 inhibition reporter assay (HEK-Blue SEAP); conditions: read-out: TLR8 IC50;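 note: SEAP driven by IFN-β minimal promoter carrying NF-κB and AP-1 sites, compounds dosed 0.05 nM to 50 µM for 22 h, inhibition scaled between agonist-plus-DMSO and reference-inhibitor wells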
human TLR9 = human TLR9 (Homo sapiens (Human), UniProt Q9NR96); assay: TLR9 inhibition reporter assay (HEK-Blue SEAP); conditions: read-out: TLR9 IC50;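 note: SEAP driven by an IFN-β minimal promoter with NF-κB and AP-1 sites, read after 22 h, compounds dosed 0.05 nM–50 µM, inhibition scaled between agonist plus DMSO and reference-inhibitor wells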
human TLR7 = human TLR7 (Homo sapiens (Human), UniProt Q9NYK1); assay: TLR7 inhibition reporter assay (HEK-Blue SEAP); type: cell-based
[1] = HEK-Blue cells overexpressing human TLR8, SEAP reporter, R848 15.9 μM
[2] = HEK-Blue cells overexpressing human TLR9, SEAP reporter, ODN2006 5 nM
[3] = HEK-Blue cells overexpressing human TLR7, SEAP reporter, gardiquimod 7.5 μM
[4] = HEK-Blue human TLR8 cells, R848 15.9 μM
[5] = HEK-Blue human TLR9 cells, ODN2006 5 nM
[6] = HEK-Blue human TLR7 cells, gardiquimod 7.5 μM
[7] = HEK-Blue cells overexpressing human TLR8, R848 15.9 μM stimulation, SEAP reporter
[8] = HEK-Blue cells overexpressing human TLR9, ODN2006 5 nM stimulation, SEAP reporter
[9] = HEK-Blue cells overexpressing human TLR7, gardiquimod 7.5 μM stimulation, SEAP reporter

human TLR9, sequence (Q9NR96 26-1032): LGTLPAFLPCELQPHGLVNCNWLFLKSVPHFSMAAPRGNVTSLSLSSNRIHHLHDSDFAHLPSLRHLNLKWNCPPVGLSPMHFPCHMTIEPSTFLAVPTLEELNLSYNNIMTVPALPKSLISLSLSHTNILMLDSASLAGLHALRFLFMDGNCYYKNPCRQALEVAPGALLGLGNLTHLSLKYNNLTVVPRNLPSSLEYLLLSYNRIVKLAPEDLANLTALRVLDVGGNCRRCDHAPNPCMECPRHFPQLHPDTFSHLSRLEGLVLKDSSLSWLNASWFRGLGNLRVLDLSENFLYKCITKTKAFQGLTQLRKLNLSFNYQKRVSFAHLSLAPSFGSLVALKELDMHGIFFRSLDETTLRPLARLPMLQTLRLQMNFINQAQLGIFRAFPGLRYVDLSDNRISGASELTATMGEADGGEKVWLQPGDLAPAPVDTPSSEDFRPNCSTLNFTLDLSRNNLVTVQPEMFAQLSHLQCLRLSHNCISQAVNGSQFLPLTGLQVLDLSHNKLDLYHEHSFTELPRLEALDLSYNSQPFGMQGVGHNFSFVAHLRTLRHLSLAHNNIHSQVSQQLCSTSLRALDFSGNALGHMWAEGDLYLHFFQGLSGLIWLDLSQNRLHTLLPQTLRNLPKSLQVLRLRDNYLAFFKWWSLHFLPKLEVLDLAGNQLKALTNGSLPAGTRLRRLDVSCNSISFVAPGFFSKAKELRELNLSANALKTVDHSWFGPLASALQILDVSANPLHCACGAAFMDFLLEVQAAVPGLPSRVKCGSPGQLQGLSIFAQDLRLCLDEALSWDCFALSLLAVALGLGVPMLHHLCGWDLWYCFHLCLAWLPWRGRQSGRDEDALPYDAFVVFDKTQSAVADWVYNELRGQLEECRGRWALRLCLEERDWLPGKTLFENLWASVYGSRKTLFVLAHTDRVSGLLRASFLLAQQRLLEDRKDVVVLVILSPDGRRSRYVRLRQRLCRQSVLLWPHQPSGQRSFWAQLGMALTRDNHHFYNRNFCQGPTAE
human TLR8, sequence (Q9NR97 27-1041): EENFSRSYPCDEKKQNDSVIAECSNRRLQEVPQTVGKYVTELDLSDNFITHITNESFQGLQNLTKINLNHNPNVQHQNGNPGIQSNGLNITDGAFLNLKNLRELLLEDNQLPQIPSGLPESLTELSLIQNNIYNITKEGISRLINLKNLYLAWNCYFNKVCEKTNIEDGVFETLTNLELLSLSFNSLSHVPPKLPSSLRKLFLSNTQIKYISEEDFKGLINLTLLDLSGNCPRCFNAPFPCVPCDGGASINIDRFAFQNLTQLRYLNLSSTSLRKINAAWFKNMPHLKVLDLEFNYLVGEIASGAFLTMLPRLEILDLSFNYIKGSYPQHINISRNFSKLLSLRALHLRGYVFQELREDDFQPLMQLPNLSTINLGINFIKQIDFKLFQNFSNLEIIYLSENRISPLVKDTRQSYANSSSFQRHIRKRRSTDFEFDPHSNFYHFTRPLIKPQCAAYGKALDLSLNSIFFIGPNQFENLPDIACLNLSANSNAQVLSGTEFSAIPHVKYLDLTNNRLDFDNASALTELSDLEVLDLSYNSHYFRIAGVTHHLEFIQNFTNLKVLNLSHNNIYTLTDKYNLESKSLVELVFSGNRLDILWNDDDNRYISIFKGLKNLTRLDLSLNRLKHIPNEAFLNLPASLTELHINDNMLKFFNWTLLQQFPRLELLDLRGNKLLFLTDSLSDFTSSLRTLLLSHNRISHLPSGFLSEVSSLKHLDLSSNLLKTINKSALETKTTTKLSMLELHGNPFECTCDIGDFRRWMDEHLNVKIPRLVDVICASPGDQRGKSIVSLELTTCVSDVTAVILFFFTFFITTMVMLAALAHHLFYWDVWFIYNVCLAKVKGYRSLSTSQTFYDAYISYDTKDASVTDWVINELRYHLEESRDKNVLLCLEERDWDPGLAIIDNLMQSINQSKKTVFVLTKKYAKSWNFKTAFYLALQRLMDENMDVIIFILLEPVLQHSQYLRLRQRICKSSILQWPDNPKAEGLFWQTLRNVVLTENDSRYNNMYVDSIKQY
human TLR7, sequence (Q9NYK1 27-1049): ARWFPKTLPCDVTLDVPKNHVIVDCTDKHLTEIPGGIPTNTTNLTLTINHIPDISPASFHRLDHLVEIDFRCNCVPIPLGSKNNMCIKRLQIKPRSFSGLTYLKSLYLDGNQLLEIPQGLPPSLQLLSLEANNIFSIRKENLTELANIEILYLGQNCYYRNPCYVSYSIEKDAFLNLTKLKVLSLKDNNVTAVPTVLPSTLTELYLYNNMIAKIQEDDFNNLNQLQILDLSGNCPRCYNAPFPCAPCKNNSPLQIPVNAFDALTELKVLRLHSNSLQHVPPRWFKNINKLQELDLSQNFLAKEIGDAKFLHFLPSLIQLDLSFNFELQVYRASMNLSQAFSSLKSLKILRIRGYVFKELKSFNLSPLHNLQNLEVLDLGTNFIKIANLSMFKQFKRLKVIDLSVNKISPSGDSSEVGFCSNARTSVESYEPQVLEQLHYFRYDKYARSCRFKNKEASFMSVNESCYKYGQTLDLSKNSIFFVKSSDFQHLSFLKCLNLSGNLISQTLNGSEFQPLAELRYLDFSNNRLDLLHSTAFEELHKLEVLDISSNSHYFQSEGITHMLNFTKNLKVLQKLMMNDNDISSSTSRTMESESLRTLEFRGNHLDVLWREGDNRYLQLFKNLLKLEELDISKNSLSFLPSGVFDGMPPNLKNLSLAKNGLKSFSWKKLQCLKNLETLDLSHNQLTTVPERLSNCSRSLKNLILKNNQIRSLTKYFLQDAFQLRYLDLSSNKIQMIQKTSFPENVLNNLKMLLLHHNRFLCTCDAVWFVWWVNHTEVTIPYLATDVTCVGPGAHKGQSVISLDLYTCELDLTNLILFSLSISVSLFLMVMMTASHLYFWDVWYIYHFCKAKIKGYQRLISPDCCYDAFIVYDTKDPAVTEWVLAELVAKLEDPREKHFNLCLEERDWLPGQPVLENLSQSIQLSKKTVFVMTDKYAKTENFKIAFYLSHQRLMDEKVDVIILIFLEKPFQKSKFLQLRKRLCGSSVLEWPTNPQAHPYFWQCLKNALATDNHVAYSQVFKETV

SMILES | IC50 (human TLR8; [1]) [nM] | IC50 (human TLR9; [2]) [nM] | IC50 (human TLR7; [3]) [nM] | IC50 (human TLR8; [4]) [nM] | IC50 (human TLR9; [5]) [nM] | IC50 (human TLR7; [6]) [nM] | IC50 (human TLR8; [7]) [nM] | IC50 (human TLR9; [8]) [nM] | IC50 (human TLR7; [9]) [nM]
Cc1c(-c2[nH]c3ccc(N4C[C@@H](C)NC[C@@H]4C)nc3c2C(C)C)cn2ncnc2c1C [Example 737, 6-(5-((2S,5R)-2,5-dimethylpiperazin-1-yl)-3-isopropyl-1H-pyrrolo[3,2-b]pyridin-2-yl)-7,8-dimethyl-[1,2,4]triazolo[1,5-a]pyridine] | 0.55 | 7770 | 0.59 | – | – | – | – | – | –
Cc1c(-c2[nH]c3ccc(N4C[C@@H](C)N(C(=O)CCN(C)C(C)(C)C)C[C@@H]4C)nc3c2C(C)C)cn2ncnc2c1C [Example 914] | – | – | – | 0.94 | 6050 | 0.73 | – | – | –
COc1ccc(-c2[nH]c3ccc(C4CCNCC4)nc3c2C(C)C)cc1OC [Example 526] | 14 | 666 | 8.8 | – | – | – | – | – | –
CC(C)c1c(-c2cn(C)c3ncccc23)[nH]c2ccc(CCC3CN(CC4(C)COC4)C3)nc12 [Example 691] | 9.2 | 315 | 11 | – | – | – | – | – | –
Cc1c(-c2[nH]c3ccc(C4CCC(NCCC#N)CC4)nc3c2C(C)C)cn2ncnc2c1C (stereo not drawn) [Example 432] | 0.55 | 584 | 0.37 | – | – | – | – | – | –
Cc1c(-c2[nH]c3ccc(N4CCN(C(=O)C5(N(C)C)CC5)CC4)nc3c2C(C)C)cn2ncnc2c1C [Example 854] | – | – | – | 5 | 32300 | 11 | – | – | –
Cc1c(-c2[nH]c3ccc(N4CCN[C@H](CO)C4)nc3c2C(C)C)cn2ncnc2c1C [Example 994] | – | – | – | 3.4 | 11800 | 13 | – | – | –
COc1cc(-c2[nH]c3ccc(C4CCN(C5COC5)CC4)nc3c2C(C)C)cn2ncnc12 [Example 535] | 8.6 | 5720 | 2 | – | – | – | – | – | –
Cc1c(-c2[nH]c3ccc(N4CCN(C(C)C)C[C@@H]4C)nc3c2C(C)C)cn2ncnc2c1C [Example 816] | – | – | – | 1.7 | 8720 | 1.7 | – | – | –
CNC1CCC(c2ccc3[nH]c(-c4cn(CCS(C)(=O)=O)c5ncccc45)c(C(C)C)c3n2)CC1 (stereo not drawn) [Example 264] | – | – | – | – | – | – | 42 | 255 | 55
Cc1c(-c2[nH]c3ccc(N4C5CNCC4COC5)nc3c2C(C)C)cn2ncnc2c1C [Example 972] | – | – | – | 3.1 | 6920 | 3.3 | – | – | –
Cc1c(-c2[nH]c3ccc(N4CCN(CCN(C)C)C(=O)C4)nc3c2C(C)C)cn2ncnc2c1C [Example 1032] | – | – | – | 196 | 25400 | 1210 | – | – | –
Cc1cc(-c2[nH]c3ccc(C4CCC(N5CC6(COC6)C5)CC4)nc3c2C(C)C)cc(C)n1 (stereo not drawn) [Example 283] | – | – | – | – | – | – | 1.4 | 298 | 0.92
CCN(C)CC(=O)N1C[C@H](C)N(c2ccc3[nH]c(-c4cn5ncnc5c(C)c4C)c(C(C)C)c3n2)C[C@H]1C [Example 893] | – | – | – | 0.74 | 7440 | 0.34 | – | – | –
Cc1c(-c2[nH]c3ccc(C4CCC(N5CC(C#N)C5)CC4)nc3c2C(C)C)cn2ncnc2c1C (stereo not drawn) [Example 434] | 2.4 | 7430 | 1.5 | – | – | – | – | – | –
Cc1c(-c2[nH]c3ccc(N4[C@H](C)CN(C(=O)CN(C)C)C[C@H]4C)nc3c2C(C)C)cn2ncnc2c1C [Example 863] | – | – | – | 17 | 6060 | 0.52 | – | – | –
Cc1cc(-c2[nH]c3ccc(-c4cnn(CCN5CCOCC5)c4)nc3c2C(C)C)cn2ncnc12 [Example 736] | 269 | > 50000 | 631 | – | – | – | – | – | –
Cc1cc(-c2[nH]c3cc(F)c(C4CCN(C(=O)CN(C)C)CC4)nc3c2C(C)C)cn2ncnc12 [Example 585] | 8.6 | 1840 | 0.46 | – | – | – | – | – | –
Cc1c(-c2[nH]c3cc(F)c(C4CCC(N)CC4)nc3c2C(C)C)cn2ncnc2c1C (stereo not drawn) [Example 507] | 2.4 | 8490 | 1.1 | – | – | – | – | – | –
CC(C)c1c(-c2cn(C)c3ncncc23)[nH]c2ccc(C3CCC(NC4CCOCC4)CC3)nc12 (stereo not drawn) [Example 305] | – | – | – | – | – | – | 16 | 8240 | 4
COc1cc(-c2[nH]c3cc(C)c(C4CCC(N5CCC5)CC4)nc3c2C(C)C)cn2ncnc12 (stereo not drawn) [Example 325] | – | – | – | – | – | – | 38 | 3110 | 1.5
COc1cc(-c2[nH]c3cc(C)c(C(=O)N4CCN(C(C)=O)CC4)nc3c2C(C)C)cn2ncnc12 [Example 733] | 1010 | > 50000 | 53 | – | – | – | – | – | –
COc1cc(-c2[nH]c3ccc(N4CCN(C)CC4)nc3c2C(C)C)cn2ncnc12 [Example 91] | – | – | – | – | – | – | 0.53 | 6310 | 0.68

SMILES | IC50 (human TLR8; [1]) [nM] | IC50 (human TLR9; [2]) [nM] | IC50 (human TLR7; [3]) [nM] | IC50 (human TLR8; [4]) [nM] | IC50 (human TLR9; [5]) [nM] | IC50 (human TLR7; [6]) [nM] | IC50 (human TLR8; [7]) [nM] | IC50 (human TLR9; [8]) [nM] | IC50 (human TLR7; [9]) [nM]
Cc1c(-c2[nH]c3ccc(N4CCC(NCC5(S(C)(=O)=O)CC5)C4)nc3c2C(C)C)cn2ncnc2c1C (stereo not drawn) [Example 165] | – | – | – | – | – | – | 0.68 | 22700 | 11
Cc1c(-c2[nH]c3ccc(N4CCN(C(=O)CN5CCOCC5(C)C)CC4)nc3c2C(C)C)cn2ncnc2c1C [Example 950] | – | – | – | 4.9 | 36100 | 7.2 | – | – | –
Cc1cc(-c2[nH]c3cc(F)c(C4CCNCC4)nc3c2C(C)C)cn2ncnc12 [Example 11, 6-(6-fluoro-3-isopropyl-5-(piperidin-4-yl)-1H-pyrrolo[3,2-b]pyridin-2-yl)-8-methyl-[1,2,4]triazolo[1,5-a]pyridine] | – | – | – | – | – | – | 21 | 6790 | 1.7
Cc1c(-c2[nH]c3ccc(CCC4CN(C5COC5)C4)nc3c2C(C)C)cn2ncnc2c1C [Example 686] | > 3120 | > 50000 | > 3120 | – | – | – | – | – | –
COc1cc(-c2[nH]c3ccc(N4CCN(CC(C)(C)O)CC4)nc3c2C(C)C)cn2ncnc12 [Example 106] | – | – | – | – | – | – | 0.28 | 7780 | 2.2
Cc1c(-c2[nH]c3ccc(C4CCC(NC5CCS(=O)(=O)C5)CC4)nc3c2C(C)C)cn2ncnc2c1C (stereo not drawn) [Example 465] | 1.9 | 5660 | 1.1 | – | – | – | – | – | –
Cc1c(-c2[nH]c3ccc(C4CCC(NC5CCS(=O)(=O)C5)CC4)nc3c2C(C)C)cn2ncnc2c1C (stereo not drawn) [Example 470] | 6 | 7420 | 1.3 | – | – | – | – | – | –
Cc1c(-c2[nH]c3ccc(N4CCN(C(=O)CN5CCCC5)CC4)nc3c2C(C)C)cn2ncnc2c1C [Example 145] | – | – | – | – | – | – | 0.49 | 8200 | 1.5
COc1cc(-c2[nH]c3ccc(C4CCC(NC(=O)C5CCN(C)CC5)C4)nc3c2C(C)C)cn2ncnc12 (stereo not drawn) [Example 714] | 9.3 | 203 | 1.8 | – | – | – | – | – | –
Cc1c(-c2[nH]c3ccc(N4[C@@H]5CC[C@H]4CN(C(=O)CN(CCO)C(C)(C)C)C5)nc3c2C(C)C)cn2ncnc2c1C [Example 925] | – | – | – | 9.2 | 10100 | 0.79 | – | – | –
Cc1c(-c2[nH]c3ccc(N4CCN(C(=O)CN(C)C(C)(C)C)CC4)nc3c2C(C)C)cn2ncnc2c1C [Example 878] | – | – | – | 2.2 | 9040 | 0.48 | – | – | –
Cc1c(-c2[nH]c3ccc(C4CCC(NC5CC5)CC4)nc3c2C(C)C)cn2ncnc2c1C (stereo not drawn) [Example 421] | 1.8 | 2060 | 1.6 | – | – | – | – | – | –
CCN(CC)C1CCN(c2ccc3[nH]c(-c4cn5ncnc5c(C)c4C)c(C(C)C)c3n2)CC1 [Example 70] | – | – | – | – | – | – | 1.2 | 2970 | 2.3
Cc1c(-c2[nH]c3ccc(N4CC5(CCNCC5)C4)nc3c2C(C)C)cn2ncnc2c1C [Example 43] | – | – | – | – | – | – | 7.8 | 560 | 2
Cc1c(-c2[nH]c3ccc(N4CCN(CCC(N)=O)[C@@H](C)C4)nc3c2C(C)C)cn2ncnc2c1C [Example 791] | 1.1 | 18100 | 5.3 | – | – | – | – | – | –
COc1cc(-c2[nH]c3ccc(N4CCN(CC(N)=O)CC4)nc3c2C(C)C)cn2ncnc12 [Example 130] | – | – | – | – | – | – | 4.7 | > 50000 | 4.3
CC(C)c1c(-c2cn(C)c3ncccc23)[nH]c2ccc(N3CC(N)C3)nc12 [Example 35] | – | – | – | – | – | – | 282 | 13800 | 589
COc1cc(-c2[nH]c3ccc(N4CC5(C4)CN(C(C)C)C5)nc3c2C(C)C)cn2ncnc12 [Example 1020] | – | – | – | 17 | 3860 | 1.8 | – | – | –
Cc1c(-c2[nH]c3ccc(N4CCNC[C@@H]4C(C)C)nc3c2C(C)C)cn2ncnc2c1C [Example 992] | – | – | – | 0.72 | 6310 | 0.66 | – | – | –
CC(C)c1c(-c2cc(CO)c3ncnn3c2)[nH]c2ccc(C3CCC(NC4COC4)CC3)nc12 (stereo not drawn) [Example 215] | – | – | – | – | – | – | 7.6 | 2250 | […]
CCn1cc(-c2[nH]c3ccc(C4CCC(NCC(=O)N(C)C)CC4)nc3c2C(C)C)c2cccnc21 (stereo not drawn) [Example 291] | – | – | – | – | – | – | 11 | 735 | 2.6
Cc1c(-c2[nH]c3ccc(N4CCN(C(=O)CN5CC6(COC6)C5)CC4)nc3c2C(C)C)cn2ncnc2c1C [Example 1033] | – | – | – | 974 | 22400 | 1090 | – | – | –
Cc1c(-c2[nH]c3ccc(C4CCC(N(C)C5COC5)CC4)nc3c2C(C)C)cn2ncnc2c1C (single isomer, unassigned) [Example 424, N-(4-(2-(7,8-dimethyl-[1,2,4]triazolo[1,5-a]pyridin-6-yl)-3-isopropyl-1H-pyrrolo[3,2-b]pyridin-5-yl)cyclohexyl)-N-methyloxetan-3-amine] | 0.74 | 1530 | 0.89 | – | – | – | – | – | –
